According to patent publication US9066848B2, “Process for making sterile aripiprazole of desired mean particle size” (Bristol-Myers Squibb Company, priority 2003, dated 2015):

What was measured:
[1] = at room temperature; cited from earlier work
[2] = particle size of crystallized bulk aripiprazole; assay type: physicochemical

O=C1CCc2ccc(OCCCCN3CCN(c4cccc(Cl)c4Cl)CC3)cc2N1 [Aripiprazole, aripiprazole]
aqueous solubility [1]: < 1 µg/mL | particle size (95% of particles) ([2]; Example 1: impinging jet crystallization with sonication, 2° C. water anti-solvent): < 100 microns | particle size (95% of particles) ([2]; Example 2: impinging jet crystallization without sonication, 30° C. water anti-solvent): < 100 microns | particle size ([2]; batch crystallization (comparison)): 100 microns
